{
  "source": "patent US11478466B2",
  "about": "“Small molecule promoting osteoblast differentiation” (Cornell University, priority 2019, dated 2022)",
  "key": {"[1]": {"tested_on": "alkaline phosphatase (ALP)"}, "zebrafish larvae": {"tested_on": "zebrafish larvae", "experiment": "Larval zebrafish notochord ossification model (alizarin red)", "assay_type": "in vivo, Danio rerio", "conditions": "15 μM, 24-h pulse 7-8 dpf, stained at 9 dpf, vs DMSO or inert analogs", "source_text": "DIPQUO Promotes and Accelerates Bone Mineralization In Vivo To address whether the observed effects of DIPQUO on osteoblast differentiation and maturation could extend to an in vivo bone model, we utilized the zebrafish, Danio rerio. First, zebrafish were used as a model system to examine developmental ossification via direct vertebral specification through conversion of the notochord sheath (Inohaya et al., 2007; Laue et al., 2008). During zebrafish larval stages, the extent and pattern of ossification observable at discrete developmental time points are susceptible to perturbation by cytokines or genetic modulation. The contribution of extrinsic factors to notochord ossification and patterning can be measured by alizarin red staining in a manner analogous to its application in gauging osteoblast maturation in cultured cells.\nAnimals studies were performed according to protocols approved by the WCMC IACUC. Wildtype (AB/TU hybrid) zebrafish were maintained at 28.5° C. Larval fish were treated from 7 dpf to 8 dpf in tank water with DMSO or with a 24-hour pulse of 15 μM DIPQUO or inert analog BT344 or BT345, and were fixed at 9 dpf in 4% paraformaldehyde overnight rocking at 4° C. Fixed larvae were washed in PBS-0.1% Tween-20 (PBST), followed by 50% ethanol/50% PBST. […] Images were acquired on a Zeiss LSM 800 confocal microscope and Sp7^+/col10a1^+ cells quantified using ImageJ."}, "[2]": {"tested_on": "PI3K/Akt, ERK, TGF-β/SMAD2/3, BMP/SMAD1/5/9", "experiment": "Western blotting of other signaling effectors in C2C12 cells", "assay_type": "cell-based, mouse", "protocol": "Whole cell extracts were collected from C2C12 or BRITER cells in complete lysis buffer (20 mM Tris, 150 mM NaCl, 50 mM NaF, 1% NP40 substitute, HALT protease inhibitor cocktail (ThermoScientific). Proteins were resolved by electrophoresis on pre-cast 10% NuPage Bis-Tris gels (Invitrogen) and transferred to PVDF membranes (Bio-Rad). Membranes were blocked in 5% BSA-TBS-0.5% Tween-20 for 15 minutes, then incubated at 4° overnight with primary antibodies. Antibodies used were: rabbit anti-phospho-p38 MAPK (cat. no. 9211), anti-p38 MAPK XP (8690), anti-phospho-SMAD1/5 (9516), anti-SMAD1 XP (6944), anti-phospho-SMAD2/3 (8828), anti-SMAD2/3 XP (8685), anti-phospho-JNK (4668), anti-SAPK/JNK (9252), anti-phospho-Akt XP (4060), pan anti-Akt (4691), anti-phospho ERK p42/p44 (4377), anti-ERK p42/p44 (9102), anti-phospho-MKK3/6 (12280), anti-MKK3 (8535), anti-phospho-TAK1 (4531), anti-TAK1 (5206), anti-HA (3274), and anti-FLAG (14793); all from Cell Signaling); and mouse anti-p38α (cat. no. 33-1300), anti-p38β (33-8700; both ThermoFisher) and anti-β-actin (Sigma A1978). Proteins were visualized with HRP-conjugated secondary antibodies (Bio-Rad) with WestPico (ThermoFisher) or Immobilon (Millipore) chemiluminescence reagents. Images were obtained and analyzed for relative densitometric relationships on a LI-COR C-DiGit scanner using Image Studio software."}, "[3]": {"tested_on": "primary human mesenchymal stem cells (hMSCs)", "experiment": "In vitro mineralization assay (alizarin red) in hMSCs", "assay_type": "cell-based", "conditions": "hMSCs in osteogenic medium, 10 μM from day 12 to 18, normalized to cell number", "protocol": "To extend these observations to human osteoblast maturation, a quantitative assay was used to analyze mineralization in differentiating primary human mesenchymal stem cells (hMSCs). Bone marrow-derived hMSCs were cultured in unbiased growth medium for at least two passages and then cultured in osteogenic medium for 12 to 21 days and stained with alizarin red to identify a time window in which spontaneous mineralization first occurred (FIG. 4A). Subsequently, hMSCs in osteogenic medium were treated continuously with DIPQUO from day 12 to 18, stained and compared with equivalent DMSO treated controls, and then normalized to total cell numbers (FIG. 4B). DIPQUO-treated samples incorporated alizarin red in a molar ratio approximately 5 times greater than DMSO-treated samples (FIGS. 4C and 4D).\nFor mineralization studies, primary bone marrow-derived hMSCs (Lonza) were maintained and passaged in complete hMSC growth medium (Lonza). Cells were then switched to osteogenic medium (Lonza PT-3002) for 12 days, after which they were treated with DMSO or 10 μM DIPQUO for an additional 6 days. […] Staining was quantified using the Osteogenesis Quantitation kit (Millipore ECM815) following manufacturer's instructions. […] Absorbance was measured at 405 nm using an EMax Plus microplate reader and SoftMax Pro 7.0 software. […]"}},
  "data": [
    {"smiles": "Cc1cc(C)c2[nH]c(=O)c(-c3[nH]cnc3-c3ccccc3)cc2c1", "note": "[RU-0226606, 6,8-dimethyl-3-(4-phenyl-1H-imidazol-5-yl)quinolin-2(1H)-one]", "values": [
      {"measurement": "RFU Score (10 μM)", "setting": "[1]; 154-analog library, 10 μM, C2C12, duplicate", "value": 3104},
      {"measurement": "Fluo. Z Score", "setting": "[1]; SAR of library and proprietary analogs, AttoPhos assay, C2C12", "value": "34.56 ± 1.80"},
      {"measurement": "RFU Score Threshold ≥ 800", "setting": "[1]; primary screen, 10 μM, C2C12, 4 days, Ex 450/Em 580 nm, rank in brackets not taken", "value": "4000 (1)"},
      {"measurement": "Fluorescence Z Score Threshold ≥ 10", "setting": "[1]; primary screen, 10 μM, C2C12, 4 days, Z score on DMSO control wells", "value": "94.38 (1)"},
      {"measurement": "mineralization of vertebral primordia (alizarin red)", "setting": "zebrafish larvae", "value": "accelerate and accentuate mineralization of incipient vertebral primordia"},
      {"measurement": "other pathways (PI3K/Akt, ERK, TGF-β/SMAD2/3, BMP/SMAD1/5/9)", "setting": "[2]", "value": "no change observed"},
      {"measurement": "alizarin red incorporation, molar ratio relative to DMSO-treated samples", "setting": "[3]", "value": "approximately 5 times"}
    ]}
  ]
}
